Experimental data published in patent US6914045B2, “Glycopeptide antibiotics” (Wyeth Holdings Corporation, priority 2001, dated 2005).
Converted amounts (≈) assume the structure as drawn.

Key:
Test in all cases: in vitro antibacterial evaluation, MIC by broth dilution
Type in all cases: cell-based
Streptococcus sp. = conditions: broth dilution, 18 hours at 35° C.
Summary of the method: (§1)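 Broth dilution per NCCLS M7-A2 in Mueller-Hinton II medium, inoculum 5×10^5 CFU/mL, antibiotic range 64-0.06 μg/mL. MIC taken as lowest concentration inhibiting growth; Gram-positive panel includes recent clinical isolates resistant to methicillin, penicillin and/or vancomycin.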

Enterococcus sp. = conditions: broth dilution, 18 hours at 35° C.
Summary of the method: as §1

Staphylococcus sp. = conditions: broth dilution, 18 hours at 35° C.
Summary of the method: as §1

Escherichia coli = conditions: 18 hours at 35° C.
Summary of the method: as §1

CC(C)=CCCC(C)C1OCC2OC(OC3C(CO)OC(Oc4ccc(CC5NC(=O)C(C(C)c6ccccc6)NC(=O)CNC(=O)C(CO)NC(=O)C(C(O)C6CNC(=N)N6C6OC(CO)C(O)C(O)C6O)NC(=O)C(C(O)C6CNC(=N)N6)NC5=O)cc4)C(O)C3O)C(O)C(O)C2O1 (stereo not shown) [Example 125]
MIC Streptococcus agalactiae (GC 4564) (Streptococcus sp.; Streptococcus agalactiae (GC 4564)): 1 µg/mL (≈ 0.705 µM)
MIC Streptococcus pneumoniae (ATCC 6301) (Streptococcus sp.; Streptococcus pneumoniae (ATCC 6301)): 0.25 µg/mL (≈ 0.176 µM)
MIC Streptococcus pneumoniae (GC 1894) (Streptococcus sp.; Streptococcus pneumoniae (GC 1894)): 0.12 µg/mL (≈ 0.0847 µM)
MIC Streptococcus pneumoniae (GC 4565) (Streptococcus sp.; Streptococcus pneumoniae (GC 4565)): 0.25 µg/mL (≈ 0.176 µM)
MIC Streptococcus pyogenes (GC 4563) (Streptococcus sp.; Streptococcus pyogenes (GC 4563)): 0.5 µg/mL (≈ 0.353 µM)
MIC Streptococcus pneumoniae (ATCC 6301) (Streptococcus sp.; strain ATCC 6301): 0.25 µg/mL (≈ 0.176 µM)
MIC Streptococcus pneumoniae (GC 1894) (Streptococcus sp.; strain GC 1894): 0.12 µg/mL (≈ 0.0847 µM)
MIC Streptococcus pyogenes (GC 4563) (Streptococcus sp.; strain GC 4563): 0.5 µg/mL (≈ 0.353 µM)
MIC Streptococcus agalactiae (GC 4564) (Streptococcus sp.; strain GC 4564): 1 µg/mL (≈ 0.705 µM)
MIC Streptococcus pneumoniae (GC 4565) (Streptococcus sp.; strain GC 4565): 0.25 µg/mL (≈ 0.176 µM)
MIC Enterococcus avium (GC 4558) (Enterococcus sp.; Enterococcus avium (GC 4558)): 32 µg/mL (≈ 22.6 µM)
MIC Enterococcus faecalis (ATCC 29212) (Enterococcus sp.; Enterococcus faecalis (ATCC 29212)): 32 µg/mL (≈ 22.6 µM)
MIC Enterococcus faecalis (GC 2242) (Enterococcus sp.; Enterococcus faecalis (GC 2242)): 32 µg/mL (≈ 22.6 µM)
MIC Enterococcus faecalis (GC 2691) (Enterococcus sp.; Enterococcus faecalis (GC 2691)): 32 µg/mL (≈ 22.6 µM)
MIC Enterococcus faecalis (GC 3059) (Enterococcus sp.; Enterococcus faecalis (GC 3059)): 32 µg/mL (≈ 22.6 µM)
MIC Enterococcus faecalis (GC 4552) (Enterococcus sp.; Enterococcus faecalis (GC 4552)): 32 µg/mL (≈ 22.6 µM)
MIC Enterococcus faecalis (GC 4553) (Enterococcus sp.; Enterococcus faecalis (GC 4553)): 32 µg/mL (≈ 22.6 µM)
MIC Enterococcus faecalis (GC 4554) (Enterococcus sp.; Enterococcus faecalis (GC 4554)): 32 µg/mL (≈ 22.6 µM)
MIC Enterococcus faecalis (GC 6189) (Enterococcus sp.; Enterococcus faecalis (GC 6189)): 32 µg/mL (≈ 22.6 µM)
MIC Enterococcus faecium (GC 2243) (Enterococcus sp.; Enterococcus faecium (GC 2243)): 32 µg/mL (≈ 22.6 µM)
MIC Enterococcus faecium (GC 4556) (Enterococcus sp.; Enterococcus faecium (GC 4556)): 32 µg/mL (≈ 22.6 µM)
MIC Enterococcus faecium (GC 4557) (Enterococcus sp.; Enterococcus faecium (GC 4557)): 16 µg/mL (≈ 11.3 µM)
MIC Enterococcus faecalis (ATCC 29212) (Enterococcus sp.; strain ATCC 29212): 32 µg/mL (≈ 22.6 µM)
MIC Enterococcus faecalis (GC 2242) (Enterococcus sp.; strain GC 2242): 32 µg/mL (≈ 22.6 µM)
MIC Enterococcus faecium (GC 2243) (Enterococcus sp.; strain GC 2243): 32 µg/mL (≈ 22.6 µM)
MIC Enterococcus faecalis (GC 2691) (Enterococcus sp.; strain GC 2691): 32 µg/mL (≈ 22.6 µM)
MIC Enterococcus faecalis (GC 3059) (Enterococcus sp.; strain GC 3059): 32 µg/mL (≈ 22.6 µM)
MIC Enterococcus faecalis (GC 4552) (Enterococcus sp.; strain GC 4552): 32 µg/mL (≈ 22.6 µM)
MIC Enterococcus faecalis (GC 4553) (Enterococcus sp.; strain GC 4553): 32 µg/mL (≈ 22.6 µM)
MIC Enterococcus faecalis (GC 4554) (Enterococcus sp.; strain GC 4554): 32 µg/mL (≈ 22.6 µM)
MIC Enterococcus faecium (GC 4556) (Enterococcus sp.; strain GC 4556): 32 µg/mL (≈ 22.6 µM)
MIC Enterococcus faecium (GC 4557) (Enterococcus sp.; strain GC 4557): 16 µg/mL (≈ 11.3 µM)
MIC Enterococcus avium (GC 4558) (Enterococcus sp.; strain GC 4558): 32 µg/mL (≈ 22.6 µM)
MIC Enterococcus faecalis (GC 6189) (Enterococcus sp.; strain GC 6189): 32 µg/mL (≈ 22.6 µM)
MIC Staphylococcus aureus (ATCC 29213) (Staphylococcus sp.): 32 µg/mL (≈ 22.6 µM)
MIC Staphylococcus aureus (GC 1131) (Staphylococcus sp.): 32 µg/mL (≈ 22.6 µM)
MIC Staphylococcus aureus (GC 3051) (Staphylococcus sp.): 32 µg/mL (≈ 22.6 µM)
MIC Staphylococcus aureus (GC 3053) (Staphylococcus sp.): 32 µg/mL (≈ 22.6 µM)
MIC Staphylococcus aureus (GC 4541) (Staphylococcus sp.): 8 µg/mL (≈ 5.64 µM)
MIC Staphylococcus aureus (GC 4542) (Staphylococcus sp.): 32 µg/mL (≈ 22.6 µM)
MIC Staphylococcus aureus (GC 4544) (Staphylococcus sp.): 32 µg/mL (≈ 22.6 µM)
MIC Staphylococcus aureus (GC 4545) (Staphylococcus sp.): 32 µg/mL (≈ 22.6 µM)
MIC Staphylococcus aureus (GC 1131) (Staphylococcus sp.; inoculum 5×10^5 CFU/mL, strain GC 1131): 32 µg/mL (≈ 22.6 µM)
MIC Staphylococcus aureus (ATCC 29213) (Staphylococcus sp.; strain ATCC 29213): 32 µg/mL (≈ 22.6 µM)
MIC Staphylococcus aureus (GC 3051) (Staphylococcus sp.; strain GC 3051): 32 µg/mL (≈ 22.6 µM)
MIC Staphylococcus aureus (GC 3053) (Staphylococcus sp.; strain GC 3053): 32 µg/mL (≈ 22.6 µM)
MIC Staphylococcus aureus (GC 4541) (Staphylococcus sp.; strain GC 4541): 8 µg/mL (≈ 5.64 µM)
MIC Staphylococcus aureus (GC 4542) (Staphylococcus sp.; strain GC 4542): 32 µg/mL (≈ 22.6 µM)
MIC Staphylococcus aureus-SMITH (GC 4543) (Staphylococcus sp.; strain GC 4543): 32 µg/mL (≈ 22.6 µM)
MIC Staphylococcus aureus (GC 4544) (Staphylococcus sp.; strain GC 4544): 32 µg/mL (≈ 22.6 µM)
MIC Staphylococcus aureus (GC 4545) (Staphylococcus sp.; strain GC 4545): 32 µg/mL (≈ 22.6 µM)
MIC Staphylococcus haemolyticus (GC 4546) (Staphylococcus sp.; strain GC 4546): 32 µg/mL (≈ 22.6 µM)
MIC Coagulase Negative Staphylococcus (GC 4547) (Staphylococcus sp.; strain GC 4547): 32 µg/mL (≈ 22.6 µM)
MIC Coagulase Negative Staphylococcus (GC 4548) (Staphylococcus sp.; strain GC 4548): 32 µg/mL (≈ 22.6 µM)
MIC Coagulase Negative Staphylococcus (GC 4549) (Staphylococcus sp.; strain GC 4549): 32 µg/mL (≈ 22.6 µM)
MIC Coagulase Negative Staphylococcus (GC 4551) (Staphylococcus sp.; strain GC 4551): 32 µg/mL (≈ 22.6 µM)
MIC Coagulase Negative Staphylococcus (GC 6257) (Staphylococcus sp.; strain GC 6257): 32 µg/mL (≈ 22.6 µM)
MIC Staphylococcus aureus-SMITH (GC 4543) (Staphylococcus sp.; strain SMITH GC 4543): 32 µg/mL (≈ 22.6 µM)
MIC Escherichia coli (ATCC 25922) (Escherichia coli; strain ATCC 25922): >64 µg/mL
MIC Escherichia coli (GC 4559) (Escherichia coli; strain GC 4559): >64 µg/mL
MIC Escherichia coli (GC 4560) (Escherichia coli; strain GC 4560): 32 µg/mL (≈ 22.6 µM)
